Results from patent publication US11634388B2 (Chengdu Easton Biopharmaceuticals Co., Ltd., priority 2018, dated 2023).
Structures can show the parent of a compound that is named as a salt.

Tests used:
[1] = prior art WO2018164436; cited from earlier work
[2] = Determination of the dissolution rate (500 ml medium, 37° C., 50 r/min, HPLC); format: physicochemical
Procedure: (50 r/min). At 5 min, 10 min, 15 min, 20 min, 30 min, 45 min and 60 min, the concentrations of lenvatinib in the medium were determined by using high performance liquid chromatography.

[3] = Pharmacokinetic study in rats; format: in vivo; details: male, rat, plasma, po; SD rats, intragastric 10 mg/kg, suspension in oil, mean ± SD
Procedure: About 20 mg of the test drug was taken, added into 8 mL of vegetable oil and shaken well, to prepare a 2.5 mg/mL suspension.
6 SD rats, all males, 200-220 g, provided by Chengdu Dashuo Biotechnology Co., Ltd.
The rats were intragastrically administrated with 10 mg/kg of the drug. Before administration and at 5 min, 15 min, 30 min, 1 h, 2 h, 4 h, 6 h, 8 h, 24 h after administration, 0.2 mL of jugular blood was taken and placed in EDTA-K2 anticoagulant tube, centrifuged for 10 min at 3000 r/min. The plasma was separated and frozen in the refrigerator at −80° C. After all blood collections were completed, the blood drug concentration in each blood sample was analyzed and determined autonomously, and the parameters of the test drugs (Tmax, time to maximum plasma concentration; Cmax, maximum plasma concentration; AUClast) were calculated.

[4] = Stability study of crystal form (XRPD before and after placement); format: physicochemical
[5] = pH 1.0 medium (hydrochloric acid), 5 min
[6] = pH 6.8 medium (potassium dihydrogen phosphate buffer), 5 min

concentration of lenvatinib in the medium [2, 5] [µg/mL] | concentration of lenvatinib in the medium ([2]; pH 1.0 medium, 10 min) [µg/mL] | concentration of lenvatinib in the medium ([2]; pH 1.0 medium, 15 min) [µg/mL] | concentration of lenvatinib in the medium ([2]; pH 1.0 medium, 20 min) [µg/mL] | concentration of lenvatinib in the medium ([2]; pH 1.0 medium, 30 min) [µg/mL] | concentration of lenvatinib in the medium ([2]; pH 1.0 medium, 45 min) [µg/mL] | concentration of lenvatinib in the medium ([2]; pH 1.0 medium, 60 min) [µg/mL] | concentration of lenvatinib in the medium [2, 6] [µg/mL] | concentration of lenvatinib in the medium ([2]; pH 6.8 medium, 10 min) [µg/mL] | concentration of lenvatinib in the medium ([2]; pH 6.8 medium, 15 min) [µg/mL] | concentration of lenvatinib in the medium ([2]; pH 6.8 medium, 20 min) [µg/mL] | concentration of lenvatinib in the medium ([2]; pH 6.8 medium, 30 min) [µg/mL] | concentration of lenvatinib in the medium ([2]; pH 6.8 medium, 45 min) [µg/mL] | concentration of lenvatinib in the medium ([2]; pH 6.8 medium, 60 min) [µg/mL] | SMILES | also measured
– | – | – | – | – | – | – | – | – | – | – | – | – | – | COc1cc2nccc(Oc3ccc(NC(=O)NC4CC4)c(Cl)c3)c2cc1C(N)=O [crystal form M, lenvatinib mesylate] | solubility [1]: not evidently improved
1480 | 1540 | 1540 | 1520 | 1560 | 1570 | 1600 | 3.6 | 3.8 | 3.9 | 3.9 | 3.9 | 3.9 | 4 | COc1cc2nccc(Oc3ccc(NC(=O)NC4CC4)c(Cl)c3)c2cc1C(N)=O [Crystal form X, lenvatinib mesylate] | AUC(0-t) [3]: 90.9 ± 19.6 µg·h/mL; Cmax [3]: 9.87 µg/mL; Tmax [3]: 1.17 ± 0.41 h; crystal transformation before and after the stability tests ([4]; all conditions of Table 4): did not undergo crystal transformation; Result of crystal form (XRPD) ([4]; high humidity 25° C., RH 93.5%, 1 month): No obvious change; Result of crystal form (XRPD) ([4]; high humidity 25° C., RH 93.5%, 7 days): No obvious change; Result of crystal form (XRPD) ([4]; strong light illumination, 7 days): No obvious change; Result of crystal form (XRPD) ([4]; temperature 2~8° C., 10 days): No obvious change
410 | 470 | 520 | 550 | 610 | 670 | 720 | 2.7 | 3 | 3.1 | 3.2 | 3.3 | 3.4 | 3.5 | COc1cc2nccc(Oc3ccc(NC(=O)NC4CC4)c(Cl)c3)c2cc1C(N)=O [Crystal form C, lenvatinib mesylate, reference compound] | –
